Where two headings read alike, the source gives them in different places.

What all share (type): biochemical
Assay [1] concerns the target T1, PglC (Cj) (Campylobacter jejuni, UniProt Q0P9D0).
T1 sequence (Q0P9D0 1-200): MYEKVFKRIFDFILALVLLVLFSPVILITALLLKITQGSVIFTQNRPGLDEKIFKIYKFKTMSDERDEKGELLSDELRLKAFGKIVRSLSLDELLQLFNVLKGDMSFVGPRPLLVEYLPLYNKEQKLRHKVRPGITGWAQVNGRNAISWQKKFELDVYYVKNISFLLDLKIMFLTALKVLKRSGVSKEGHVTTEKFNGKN
Kind of assay: PGT activity assay with UDP-diNAcBac, percent inhibition at […]. Particulars: read-out: % inhibition at 100 μM.

Assay [2] addresses T1, PglC (Cj). The description is as above. Particulars: read-out: % inhibition at 100 μM. This is another data set of the same source.
The target in assay [3] is T1, PglC (Cj).
The target in another assay is T2, WecA (Tm) (Thermotoga maritima, UniProt Q9X1N5).
T2 sequence (Q9X1N5 1-291): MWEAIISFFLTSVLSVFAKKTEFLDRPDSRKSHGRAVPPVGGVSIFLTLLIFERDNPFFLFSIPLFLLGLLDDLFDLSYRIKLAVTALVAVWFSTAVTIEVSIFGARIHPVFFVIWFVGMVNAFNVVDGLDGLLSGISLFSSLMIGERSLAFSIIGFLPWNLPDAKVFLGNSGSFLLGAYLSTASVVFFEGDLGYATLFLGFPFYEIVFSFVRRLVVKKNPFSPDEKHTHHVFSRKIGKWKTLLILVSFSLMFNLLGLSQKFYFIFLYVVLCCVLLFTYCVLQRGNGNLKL
The experiment in a line: PGT activity assay.

Turning to `CC(=O)N[C@H]1[C@@H](OP(=O)(O)[C@@H](F)P(=O)(O)OC[C@H]2O[C@@H](n3ccc(=O)[nH]c3=O)[C@H](O)[C@@H]2O)O[C@H](CO)[C@@H](O)[C@@H]1O` [compound 7, α-GlcNAc-(S)-CHF], the inhibition (as a rule, the share of the control response that was lost under treatment) at 100 µM at PglC (Cj) [1] stood at 52 ± 10%. For the molecule `O=c1ccn([C@@H]2O[C@H](COP(=O)(O)C(F)(F)P(=O)(O)O)[C@@H](O)[C@H]2O)c(=O)[nH]1` [compound 3, H-CF2], the inhibition at 100 µM on PglC (Cj) [2] was found to be 33 ± 6%. As for `CC(=O)N[C@H]1[C@@H](OP(=O)(O)C(F)(F)P(=O)(O)OC[C@H]2O[C@@H](n3ccc(=O)[nH]c3=O)[C@H](O)[C@@H]2O)O[C@H](CO)[C@@H](O)[C@@H]1O` [compound 4, α-GlcNAc-CF2], on PglC (Cj) [3], the IC50 (as a rule, the midpoint of a concentration-inhibition curve) was 32 ± 5.3 µM.

On WecA (Tm), `CC(=O)N[C@H]1[C@@H](OP(=O)(O)CP(=O)(O)OC[C@H]2O[C@@H](n3ccc(=O)[nH]c3=O)[C@H](O)[C@@H]2O)O[C@H](CO)[C@@H](O)[C@@H]1O` [compound 11, α-GlcNAc-CH2] gave a half-maximal inhibitory concentration (IC50) of 41 ± 10 µM. The inhibition at 100 µM at PglC (Cj) [1] came to 28 ± 12%.

Source of the values: paper PMC10922802 (Journal of the American Chemical Society, 2023).
